Columns and labels:
human ST3O = biological target: T1, human ST3O (Homo sapiens, UniProt Q11201); assay: Acceptor specificity of soluble human ST3O; type: biochemical; details: acceptor 0.2 mM
T1 construct: lacked the first 44 amino acids of the open reading frame; made in house; host or cells: COS-1 cells (transient, culture medium)
T1 sequence (Q11201 45-340): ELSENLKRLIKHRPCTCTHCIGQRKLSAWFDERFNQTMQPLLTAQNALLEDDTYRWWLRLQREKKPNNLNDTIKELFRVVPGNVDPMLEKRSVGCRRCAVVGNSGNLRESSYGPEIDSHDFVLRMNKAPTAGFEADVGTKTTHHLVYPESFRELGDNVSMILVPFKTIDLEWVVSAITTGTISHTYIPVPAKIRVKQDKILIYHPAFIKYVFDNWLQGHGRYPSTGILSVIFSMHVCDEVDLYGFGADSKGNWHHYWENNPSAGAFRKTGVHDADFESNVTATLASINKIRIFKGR

porcine ST3O = biological target: T2, porcine ST3O (Sus scrofa, UniProt Q02745); assay: Acceptor specificity of recombinant porcine ST3O; type: biochemical; details: acceptor 0.2 mM
T2 sequence (Q02745 28-343 limits assumed): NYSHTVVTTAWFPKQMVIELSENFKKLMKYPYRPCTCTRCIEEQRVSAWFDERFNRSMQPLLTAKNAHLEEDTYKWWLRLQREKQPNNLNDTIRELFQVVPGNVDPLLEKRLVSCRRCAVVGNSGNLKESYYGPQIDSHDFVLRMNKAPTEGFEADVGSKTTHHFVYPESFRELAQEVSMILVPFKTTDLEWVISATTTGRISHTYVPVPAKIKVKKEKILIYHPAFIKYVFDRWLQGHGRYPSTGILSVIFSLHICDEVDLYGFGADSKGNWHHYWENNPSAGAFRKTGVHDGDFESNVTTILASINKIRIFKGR

ST3O = biological target: T3, ST3O (Sus scrofa, UniProt Q02745); assay: Acceptor specificity of ST3O in COS-1 media
T3 sequence (Q02745 28-343 limits assumed): T2 sequence (Q02745 28-343 limits assumed)

ST3N = assay: Acceptor specificity of ST3N in COS-1 media
ST3 = biological target: T4, ST3 (Homo sapiens, UniProt Q11206); assay: Acceptor specificity of soluble ST3 (AZ3) in COS-1 media; details: for sialic acid incorporation by ST3 enzyme: data not shown
T4 sequence (Q11206 1-332 isoform Q11206-2): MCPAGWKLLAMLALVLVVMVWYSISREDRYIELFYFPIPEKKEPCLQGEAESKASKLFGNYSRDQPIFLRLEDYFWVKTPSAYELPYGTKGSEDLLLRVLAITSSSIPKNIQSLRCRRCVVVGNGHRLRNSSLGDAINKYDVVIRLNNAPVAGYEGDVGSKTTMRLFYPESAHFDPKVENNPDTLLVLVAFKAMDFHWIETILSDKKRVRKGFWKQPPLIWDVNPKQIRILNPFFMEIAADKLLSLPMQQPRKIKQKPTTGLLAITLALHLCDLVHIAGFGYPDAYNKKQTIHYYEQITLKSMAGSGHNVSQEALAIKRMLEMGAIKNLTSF

rat ST3N = assay: Acceptor specificity of soluble rat ST3N fusion protein; details: acceptor 0.2 mM; relative to LNT
human ST3N = biological target: T5, human ST3N (Homo sapiens, UniProt Q11203); assay: Acceptor specificity of soluble human ST3N fusion protein; details: acceptor 0.2 mM; relative to LNT
T5 sequence (Q11203 62-375): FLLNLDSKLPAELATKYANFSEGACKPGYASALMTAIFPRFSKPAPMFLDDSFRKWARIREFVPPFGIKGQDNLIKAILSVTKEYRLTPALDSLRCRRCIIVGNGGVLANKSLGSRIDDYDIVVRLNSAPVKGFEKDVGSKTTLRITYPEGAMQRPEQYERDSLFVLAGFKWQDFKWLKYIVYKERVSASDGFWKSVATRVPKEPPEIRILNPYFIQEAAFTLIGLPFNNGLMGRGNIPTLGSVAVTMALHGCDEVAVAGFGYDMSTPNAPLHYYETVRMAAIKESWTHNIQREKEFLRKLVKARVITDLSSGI

α2,3-N sialyltransferase = biological target: T6, α2,3-N sialyltransferase (Rattus norvegicus, UniProt Q02734); assay: Acceptor use by soluble α2,3-N sialyltransferase secreted from COS-1 cells (pBD122); type: biochemical; details: concentrated COS-1 media
T6 construct: made in house; host or cells: COS-1 cells (transient, culture medium)
T6 sequence (Q02734 29-374 limits assumed): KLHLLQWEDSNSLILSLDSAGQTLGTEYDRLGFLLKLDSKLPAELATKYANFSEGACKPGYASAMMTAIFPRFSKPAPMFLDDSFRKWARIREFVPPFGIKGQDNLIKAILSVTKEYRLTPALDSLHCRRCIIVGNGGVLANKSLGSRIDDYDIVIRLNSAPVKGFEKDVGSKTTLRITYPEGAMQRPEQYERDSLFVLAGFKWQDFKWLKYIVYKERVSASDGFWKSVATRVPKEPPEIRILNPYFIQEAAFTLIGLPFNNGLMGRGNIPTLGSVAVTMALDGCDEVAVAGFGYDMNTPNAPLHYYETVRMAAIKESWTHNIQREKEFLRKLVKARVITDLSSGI

| Molecule | Relative rate (%) ST3O (ST3O; acceptor 0.2 mM) | Relative rate (%) ST3N (ST3N; acceptor 0.2 mM) | Relative rate (%) ST3 (ST3; acceptor 0.2 mM) | Relative rate (%) ST3O (ST3O; acceptor 2.0 mM) | Relative rate (%) ST3 (ST3; acceptor 2.0 mM) | further results |
| --- | --- | --- | --- | --- | --- | --- |
| Galβ1,3GalNAcβ1,4Galβ1,4Glcβ,1-Cer [Asialo-GM1] | 88% | 8% | 64% |  |  | Relative Activity (%) Human (human ST3O): 84%; Relative Activity (%) Porcine (porcine ST3O): 85% |
| Asialofetuin: glycoprotein acceptor (Galβ1,3GalNAc-Thr/Ser and Galβ1,4GlcNAc-R) | 26% |  | 92% |  |  |  |
| GalNAcβ1,4(NeuAcα2-3)Galβ1,4Glcβ1-Cer [GM2] | 0.3% | 0% |  |  |  |  |
| intact fetuin: glycoprotein examined as acceptor |  |  |  |  |  | sialic acid incorporation by ST3 enzyme (ST3): not any significant amount of sialic acid incorporated |
| CC(=O)N[C@H]1[C@H](O[C@H]2[C@@H](O)[C@@H](CO)O[C@@H](O[C@H]3[C@H](O)[C@@H](O)C(O)O[C@@H]3CO)[C@@H]2O)O[C@H](CO)[C@@H](O)[C@@H]1O[C@@H]1O[C@H](CO)[C@H](O)[C@H](O)[C@H]1O (stereo partly drawn) [LNT, lacto-N-tetrose] | 0.5% | 100% | 0% | 3% | 2.3% | Relative activity (%) Rat (rat ST3N): 100%; Relative Activity (%) Human (human ST3N): 100%; Relative rate (%) ST3N (ST3N; acceptor 2.0 mM): 100% |
| CC(=O)N[C@H]1[C@H](O[C@H]2[C@@H](O)[C@@H](CO)O[C@@H](O[C@H]3[C@H](O)[C@@H](O)C(O)O[C@@H]3CO)[C@@H]2O)O[C@H](CO)[C@@H](O[C@@H]2O[C@@H](C)[C@@H](O)[C@@H](O)[C@@H]2O)[C@@H]1O[C@@H]1O[C@H](CO)[C@H](O)[C@H](O)[C@H]1O (stereo partly drawn) [Galβ1,3(Fucα1,4)GlcNAcβ1,3Galβ1,4Glc] | 0% | 0% |  | 0% | 0% | Relative rate (%) ST3N (ST3N; acceptor 2.0 mM): 0% |
| Asialo-α1 -acid glycoprotein: glycoprotein acceptor (Galβ1,4GlcNAc-R) | 0% |  | 51% |  |  | use as acceptor by secreted enzyme (α2,3-N sialyltransferase): capable of sialylating |
| CC(=O)N[C@H]1C(O)O[C@H](CO)[C@H](O)[C@@H]1O[C@@H]1O[C@H](CO)[C@H](O)[C@H](O)[C@H]1O (stereo partly drawn) [Galβ1,3GalNAc] | 100% |  | 100% | 100% | 100% | Relative Activity (%) Human (human ST3O): 100%; Relative Activity (%) Porcine (porcine ST3O): 100% |
| .varies.1 -acid glycoprotein: intact glycoprotein examined as acceptor |  |  |  |  |  | sialic acid incorporation by ST3 enzyme (ST3): not any significant amount of sialic acid incorporated |
| Galβ1,3GalNAcβ1,4(NeuAcα2-3)Galβ1,4Glcβ1-Cer [GM1] | 47% | 0% | 27% |  |  | Relative Activity (%) Human (human ST3O): 41%; Relative Activity (%) Porcine (porcine ST3O): 44% |
| NeuAcα2,3Galβ1,4Glcβ1-Cer [GM3] | 0.1% | 0% | 0% |  |  |  |
| CC(=O)N[C@H]1C(O)O[C@H](CO)[C@@H](O)[C@@H]1O[C@@H]1O[C@H](CO)[C@H](O)[C@H](O)[C@H]1O (stereo partly drawn) [Galβ1,3GlcNAc] | 2% |  | 0% |  |  |  |
| CC(=O)N[C@H]1C(O)O[C@H](CO)[C@@H](O[C@@H]2O[C@H](CO)[C@H](O)[C@H](O)[C@H]2O)[C@@H]1O (stereo partly drawn) [Galβ1,4GlcNAc] | 0% |  | 4% | 0.9% | 23% | Relative Activity (%) Human (human ST3O): 0%; Relative Activity (%) Porcine (porcine ST3O): 0% |
| GalNAcβ1,4Galβ1,4Glcβ1-Cer [Asialo-GM2] | 0.5% | 0% | 2% |  |  |  |
| CC(=O)N[C@H]1[C@H](O[C@H]2[C@@H](O)[C@@H](CO)O[C@@H](O[C@H]3[C@H](O)[C@@H](O)C(O)O[C@@H]3CO)[C@@H]2O)O[C@H](CO)[C@@H](O[C@@H]2O[C@H](CO)[C@H](O)[C@H](O)[C@H]2O)[C@@H]1O (stereo partly drawn) [LNnT, Galβ1,4GlcNAcβ1,3Galβ1,4Glc] | 0% | 4% | 24% | 0.5% | 49% | Relative activity (%) Rat (rat ST3N): 4%; Relative Activity (%) Human (human ST3N): 5%; Relative rate (%) ST3N (ST3N; acceptor 2.0 mM): 18% |
| Galβ1,4Glcβ1-Cer [LacCer] | 0.1% | 0% | 4% |  |  |  |
| CC(=O)N[C@H]1[C@H](O[C@H]2[C@@H](O)[C@@H](CO)O[C@@H](O[C@H]3[C@H](O)[C@@H](O)C(O)O[C@@H]3CO)[C@@H]2O)O[C@H](CO)[C@@H](O[C@@H]2O[C@H](CO)[C@H](O)[C@H](O)[C@H]2O)[C@@H]1O[C@@H]1O[C@@H](C)[C@@H](O)[C@@H](O)[C@@H]1O (stereo partly drawn) [Galβ1,4(Fucα1,3)GlcNAcβ1,3Galβ1,4Glc] | 0% | 0% | 0.1% | 0% | 1% | Relative rate (%) ST3N (ST3N; acceptor 2.0 mM): 0% |

Source: US5858751A, “Compositions and methods for producing sialyltransferases” (The Regents of the University of California, priority 1995, dated 1999)
